The source of these data is patent US20260275317A1, “CHIMERIC ENDOLYSINS WITH ACTIVITY AGAINST STREPTOCOCCI AND STAPHYLOCOCCI” (UNIVERSITEIT GENT, priority 2023, published 2026).

Assay [1] concerns S. uberis-infected murine mammary glands. In words: Mouse model of S. uberis mastitis: Ly6G immunohistochemistry (neutrophil influx). The note with it: 30 μg cloxacillin stand-alone. The format is in vivo. The text has this: (§1) All experimental procedures on mice were executed at the Faculty of Veterinary Medicine of Ghent University (Merelbeke, Belgium). Breeding pairs of female and male CD-1 mice (Envigo, The Netherlands) were allowed to mate during two weeks, after which the dams gave birth approximately seven days later. Twelve days postpartum, the lactating dams were intraductally inoculated with a blunted 32 gauge pediatric needle in the fourth inguinal mammary gland pair after properly disinfecting the teat. These intraductal inoculations were always performed under general gas anesthesia, using a mixture of medical oxygen and isoflurane at 2.5-3.0% for induction and 1.5-2.0% for maintenance. The long-acting analgesic buprenorphine was administered at 10 μg/kg intraperitoneally for post-surgical pain relief. An inoculum dose of approximately […] colony forming units (CFU) of a clinical bovine mastitis S. uberis isolate in 100 μl dPBS was intraductally inoculated at 1 h post-weaning and mice were grouped ad random at 12 h post-infection (p.i.) and placed under gas anesthesia a second time to administer intramammary treatment. […] The treated mice were sedated 16 h p.i. (i.e., 4 h post-treatment). The therapeutics were diluted in dPBS to their desired concentration, mixed by pipetting and kept on melting ice until they were administered intraductally within 1 h after preparation. […]

For assay [2] the test system is unchanged. In words: Mouse model of S. uberis mastitis: inflammatory protein profiling in mammary gland lysates. To be noted: 30 μg cloxacillin stand-alone. The format is in vivo. The text has this:
All experimental procedures on mice were executed at the Faculty of Veterinary Medicine of Ghent University (Merelbeke, Belgium). Breeding pairs of female and male CD-1 mice (Envigo, The Netherlands) were allowed to mate during two weeks, after which the dams gave birth approximately seven days later. Twelve days postpartum, the lactating dams were intraductally inoculated with a blunted 32 gauge pediatric needle in the fourth inguinal mammary gland pair after properly disinfecting the teat. These intraductal inoculations were always performed under general gas anesthesia, using a mixture of medical oxygen and isoflurane at 2.5-3.0% for induction and 1.5-2.0% for maintenance. The long-acting analgesic buprenorphine was administered at 10 μg/kg intraperitoneally for post-surgical pain relief. An inoculum dose of approximately […] colony forming units (CFU) of a clinical bovine mastitis S. uberis isolate in 100 μl dPBS was intraductally inoculated at 1 h post-weaning and mice were grouped ad random at 12 h post-infection (p.i.) and placed under gas anesthesia a second time to administer intramammary treatment. […] The treated mice were sedated 16 h p.i. (i.e., 4 h post-treatment). The therapeutics were diluted in dPBS to their desired concentration, mixed by pipetting and kept on melting ice until they were administered intraductally within 1 h after preparation. Inoculum preparation was done by growing S. uberis to stationary phase in brain heart infusion (BHI), after which cells were washed with dPBS and diluted in dPBS to the desired concentration based on OD600 measurements.
The host response to the experimental mammary gland infection and subsequent therapy was investigated by determining the levels of inflammatory cytokines and chemokines in mammary gland lysates, obtained by mixing the homogenates with 300 μL caspase lysis buffer (CLB) containing protease inhibitors, and subsequent centrifugation (12,000 g; 4° C.; 20 min). Protein concentration of these lysates was determined using the Bradford protein assay. Standardization of the mammary gland lysates was done by dilution in CLB to assure equal protein concentrations. Levels of the selected inflammatory mediators TNF-α, MCP-1, M-& G-CSF as well as IL-1α, -1β, -6, & -8, were determined on mammary gland lysates using a ProcartaPlex Immunoassay. Quantification of CHI3L1 and LCN2 was performed by ELISA.

Assay [3] shares this test system. In words: Mouse model of S. uberis mastitis: bacterial load and clinical symptoms. The format is in vivo. The note with it: 30 μg cloxacillin stand-alone.
Text: as §1

Assay [4] relates to S. uberis in mastitic raw cow's milk. In words: Challenge of mastitic raw cow's milk. The format is cell-based, Streptococcus uberis. To be noted: milk of 4 cows, 8 h; 0.5 μM NC5, 50 μg/mL cloxacillin or both. The protocol:
Raw cow's milk from S. uberis infected dairy cows was supplied by the milk control center of Flanders (MCC Vlaanderen). Upon arrival, the milk was serially diluted and plated on BHI agar to determine the bacterial load. Only milk with >10^5 […] CFU/mL S. uberis was included as a selection criterium. If needed, the raw milk was incubated during 8 h at 37° C. to artificially increase the initial bacterial load. […] Upon incubation at 37° C., every 2 h, 20 μL was transferred from each well to 180 μL dPBS, serially diluted and plated on BHI agar. Plates were incubated overnight and CFU/mL were calculated the next day. Undiluted, mastitic milk was always pipetted with ClipTip Pipette Tips (Westburg, The Netherlands) due to high viscosity. Mastitis isolates were confirmed as S. uberis by MALDI-TOF MS biotyping.

Regarding `Cc1onc(-c2ccccc2Cl)c1C(=O)N[C@@H]1C(=O)N2[C@@H]1SC(C)(C)[C@@H]2C(=O)O` [cloxacillin], the “reduced neutrophil influx (Ly6G-positive staining) versus placebo” value in assay [1] is 1.8 fold. Further, in assay [2], the “CHI3L1 reduction versus placebo” value came out at 1.4 fold, the “IL-1α decrease versus placebo” value was determined as 1.2 fold, the “IL-1β decrease versus placebo” value turned out to be 1.3 fold and the “IL-6 decrease versus placebo” value is 2.0 fold. In assay [2], the “LCN2 reduction versus placebo” value stood at 1.2 fold, the “MCP-1 reduction versus placebo” value was 1.5 fold, the “MIP-2 decrease versus placebo” value stood at 1.6 fold and the “TNF-α decrease versus placebo” value is listed as 1.4 fold. Also, the “decrease in CFU numbers versus placebo” value in assay [3] was determined as 630 fold. Besides, in assay [3] (intramammary, 4 h post-treatment, all mice), the “decrease of bacterial load versus placebo” value is recorded as 55 fold. In addition, the “log10 reduction of S. uberis versus PBS control” value in assay [4] was “significant (p<0.05) reductions in all 4 mastitic milk samples at 8 h”.
